This note sets out measurements from patent publication US8362022B2, “Selective subtype alpha 2 adrenergic agents and methods for use thereof” (Allergan, Inc., priority 2008, dated 2013).

Assay [1] relates to Chung model of neuropathic pain. In words: Chung model of neuropathic pain (tactile allodynia, von Frey hairs). It counts as in vivo. The settings on record: rats. The source says:
A model in accordance with Kim and Chung 1992, Pain […], pp 355-363 (Chung model), for chronic pain (in particular peripheral neuropathy) involves the surgical ligation of the L5 (and optionally the L6) spinal nerves on one side in experimental animals. Rats recovering from the surgery gain weight and display a level of general activity similar to that of normal rats. However, these rats develop abnormalities of the foot, wherein the hindpaw is moderately everted and the toes are held together. More importantly, the hindpaw on the side affected by the surgery appears to become sensitive to pain from low-threshold mechanical stimuli, such as that producing a faint sensation of touch in a human, within about 1 week following surgery. This sensitivity to normally non-painful touch is called “tactile allodynia” and lasts for at least two months. The response includes lifting the affected hindpaw to escape from the stimulus, licking the paw and holding it in the air for many seconds. None of these responses is normally seen in the control group.
Rats are anesthetized before surgery. The surgical site is shaved and prepared either with betadine or Novacaine. Incision is made from the thoracic vertebra XIII down toward the sacrum. Muscle tissue is separated from the spinal vertebra (left side) at the L4-S2 levels. The L6 vertebra is located and the transverse process is carefully removed with a small rongeur to expose the L4-L6 spinal nerves. The L5 and L6 spinal nerves are isolated and tightly ligated with 6-0 silk thread. The same procedure is done on the right side as a control, except no ligation of the spinal nerves is performed.
A complete hemostasis is confirmed, then the wounds are sutured. A small amount of antibiotic ointment is applied to the incised area, and the rat is transferred to the recovery plastic cage under a regulated heat-temperature lamp. On the day of the experiment, at least seven days after the surgery, typically six rats per test group are administered the test drugs by intraperitoneal (i.p.) injection or oral gavage. For i.p. injection, the compounds are formulated in approximately 10 to 50% DMSO and given in a volume of 1 ml/kg body weight.
Tactile allodynia is measured prior to and 30 minutes after drug administration using von Frey hairs that are a series of fine hairs with incremental differences in stiffness. Rats are placed in a plastic cage with a wire mesh bottom and allowed to acclimate for approximately 30 minutes. The von Frey hairs are applied perpendicularly through the mesh to the mid-plantar region of the rats' hindpaw with sufficient force to cause slight buckling and held for 6-8 seconds. The applied force has been calculated to range from 0.41 to 15.1 grams. If the paw is sharply withdrawn, it is considered a positive response. A normal animal will not respond to stimuli in this range, but a surgically ligated paw will be withdrawn in response to a 1-2 gram hair. The 50% paw withdrawal threshold is determined using the method of Dixon, W. J., Ann. Rev. Pharmacol. Toxicol. 20:441-462 (1980). The post-drug threshold is compared to the pre-drug threshold and the percent reversal of tactile sensitivity is calculated based on a normal threshold of 15.1 grams. The results are expressed in percent (%) MPE, where the MPE value reflects the percentage reversal of pain threshold to that of a normal animal (100%).

In assay [2] the target is T1, alpha 2C receptor (Homo sapiens, UniProt P18825).
T1 construct: expressed in transfected cells; host or cells: NIH-3T3
T1 sequence (P18825 1-462): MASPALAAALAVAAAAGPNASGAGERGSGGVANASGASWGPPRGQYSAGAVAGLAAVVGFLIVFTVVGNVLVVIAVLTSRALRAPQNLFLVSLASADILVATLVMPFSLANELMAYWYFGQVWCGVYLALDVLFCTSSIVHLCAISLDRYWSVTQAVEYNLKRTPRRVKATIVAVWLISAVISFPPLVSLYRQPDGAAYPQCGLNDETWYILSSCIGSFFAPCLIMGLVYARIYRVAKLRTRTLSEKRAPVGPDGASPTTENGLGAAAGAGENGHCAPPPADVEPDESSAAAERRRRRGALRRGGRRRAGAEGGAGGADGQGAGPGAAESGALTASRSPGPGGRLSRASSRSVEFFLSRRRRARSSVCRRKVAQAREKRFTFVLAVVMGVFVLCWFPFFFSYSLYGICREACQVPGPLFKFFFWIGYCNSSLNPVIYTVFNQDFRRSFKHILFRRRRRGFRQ
In words: RSAT assay (Receptor Selection and Amplification Technology), Alpha 2C. In kind it is cell-based. The settings on record: RSAT. How it is done: The RSAT assay measures a receptor-mediated loss of contact inhibition that results in selective proliferation of receptor-containing cells in a mixed population of confluent cells. The increase in cell number is assessed with an appropriate transfected marker gene such as β-galactosidase, the activity of which can be easily measured in a 96-well format. Receptors that activate the G protein, Gq, elicit this response. Alpha 2 receptors, which normally couple to Gi, activate the RSAT response when coexpressed with a hybrid Gq protein that has a Gi receptor recognition domain, called Gq/i5.
NIH-3T3 cells are plated at a density of 2×10^6 cells in 15 cm dishes and maintained in Dulbecco's modified Eagle's medium supplemented with 10% calf serum. One day later, cells are cotransfected by calcium phosphate precipitation with mammalian expression plasmids encoding p-SV-β-galactosidase (5-10 μg), receptor (1-2 μg) and G protein (1-2 μg). 40 μg salmon sperm DNA may also be included in the transfection mixture. […] Cells are thawed and 100 μl added to 100 μL aliquots of various concentrations of drugs in triplicate in 96-well dishes. Incubations continue 72-96 hr at 37° C. After washing with phosphate-buffered saline, β-galactosidase enzyme activity is determined by adding 200 μL of the chromogenic substrate (consisting of 3.5 mM o-nitrophenyl-β-D-galactopyranoside and 0.5% nonidet P-40 in phosphate buffered saline), incubating overnight at 30° C. and measuring optical density at 420 nm. The absorbance is a measure of enzyme activity, which depends on cell number and reflects a receptor-mediated cell proliferation. The efficacy or intrinsic activity is calculated as a ratio of the maximal effect of the drug to the maximal effect of a standard full agonist for each receptor subtype. Brimonidine, the chemical structure of which is shown below, is used as the standard agonist for the alpha 2B and alpha 2C receptors. […] NA stands for “not active” at concentrations less than 3-10 micromolar.

SMILES strings stand for the structures.

Regarding `Cc1cccc(C(Cc2cccnc2)/N=C2/NCCO2)c1C` (centres unmarked) [Compound 21, 1-(2,3-Dimethylphenyl)-N-(oxazolidin-2-ylidene)-2-(pyridin-3-yl)ethanamine], the “% Pain Reversal ± SEM” value was 27 ± 5% in assay [1] (0.10 mg i.p., 30 min); approximately 10% in assay [1] (0.10 mg i.p., 60 min); 60.1 ± 12.8% in assay [1] (0.30 mg i.p., 30 min); 21.5 ± 6.1% in assay [1] (0.30 mg i.p., 60 min); 95.9 ± 4.1% in assay [1] (1.0 mg i.p., 30 min); 77.0 ± 7.6% in assay [1] (1.0 mg i.p., 60 min). Moreover, the EC50 (as a rule, the concentration giving half of the maximal effect) in assay [2] (transfected NIH-3T3 cells with Gq/i5, NA = not active at concentrations less than 10 micromolar, read-out: potency nM (EC50) Alpha 2C) is 18 nM. Further, the “Intrinsic Activity efficacy Alpha 2C” value in assay [2] (value in parentheses, ratio of maximal effect to that of brimonidine) is 0.4.
